Assay results: US11524938B2, “Aromatic sulfonamide derivatives” (Bayer Pharma Aktiengesellschaft, priority 2016, dated 2022)

What was measured:
C57BL/6 mice = test: CFA Inflammation Model in Mice with Pain Behaviour Read Out; assay type: in vivo, mouse; conditions: oral 0.3, 1, 3 mg/kg, day 2 post-CFA, 1 h after treatment, vs vehicle
Method: Wild type female C57BL/6 mice (Taconic) received intraplantar injection of complete Freund's adjuvant (CFA) (30 μL, 1 mg/mL, Sigma) into the left hind paw under isoflurane anesthesia. Animals were administered orally with example 326 (0.3, 1, and 3 mg/kg, n=10/group) on day 2 post-CFA injection. Spontaneous pain-related behavior in freely moving animals was assessed using the automated dynamic weight bearing device (DWB, Bioseb, France) one hour after compound treatment according to published and validated protocols (Robinson et al., 2012; Tetreault et al., 2011; Gruen et al. 2014). For behavioral testing, the animal was placed inside a Plexiglas chamber in which the exerted pressure on the floor was measured. The animals were allowed to move freely within the apparatus for 5 min and subsequently pain behavior is recorded for a test period of another 5 min. The relative weight distribution is calculated by determining the ratio of the weight put on naïve (contralateral) vs. that put on the intraplantar CFA treated (ipsilateral) paws.
FIG. 3 as nonbinding explanatory example of compounds according to the invention represents the ratio of weight distribution in percent (y-axis) of mice orally treated with example 326 or vehicle 1 hour prior to weight distribution measurement. Each symbol represents the relative weight distribution for one mouse. […]

Sprague Dawley rats = test: CFA-Induced Mechanical Hyperalgesia Model in Rat; assay type: in vivo; conditions: 3 oral doses, 26 h after CFA, vs vehicle
Method: Male Sprague Dawley rats were used. Mechanical hyperalgesia was induced by injecting […] of Complete Freund's Adjuvant (CFA) into the plantar surface of the left hind paw. Mechanical hyperalgesia was measured using the Pressure Application Measurement apparatus (Ugo Basile, Gemonio, Italy). Briefly, a linearly increasing pressure was applied to an area of approximately 50 mm^2 of the plantar side of the hind paw, until a behavioural response (paw withdrawal) was observed or until the pressure reached 1000 gf. The pressure at which the behavioural response occurred was recorded as the Paw Withdrawal Threshold (PWT). Both CFA-injected and contralateral PWTs were determined for each rat, in each treatment group and at each time point of the studies. Rats received 3 oral doses of test compound at approximately 12 hours interval starting 1 hour prior to CFA injection. Mechanical hyperalgesia testing was performed 2 hours before CFA injection and 2 hours after the last dosing (FIGS. 4a and 4b).
FIGS. 4a and 4b as nonbinding explanatory examples of compounds according to the invention represent Paw Withdrawal Threshold in gramm (y-axis) of the ipsilateral paw of all tested animals before CFA treatment and 26 h after CFA treatment and vehicle or Example 39 (FIG. 4a) or 326 (FIG. 4b) treatment. […]

Row | SMILES | pain behavior (relative weight distribution, dynamic weight bearing) (C57BL/6 mice) | Paw Withdrawal Threshold (PWT), ipsilateral paw (Sprague Dawley rats)
1 | NS(=O)(=O)c1cc(NC(=O)Cc2ccccc2Cl)ccc1-c1cnn(C(F)F)c1 [Example 326, 2-(2-Chlorophenyl)-N-{4-[1-(difluoromethyl)-1H-pyrazol-4-yl]-3-sulfamoylphenyl}acetamide] | significantly reduced pain behavior | significantly increased PWT
2 | N#Cc1cnn(-c2ccc(NC(=O)Cc3ccccc3Cl)cc2S(N)(=O)=O)c1 [Example 39, 2-(2-Chlorophenyl)-N-[4-(4-cyano-1H-pyrazol-1-yl)-3-sulfamoylphenyl]acetamide] | – | significantly increased PWT
